This note sets out measurements from PubChem BioAssay (NCI).

Some test systems named below: LXFL 529 NSCLC; SNB-78 CNS; M19-MEL melanoma; DLD-1 colon; XF 498 CNS.
Holding throughout (test): NCI anticancer screen, dose series, 48 h

Values joined by “and” are separate entries in the source; they are usually repeats but may differ in a detail not shown here. Identical values can stand only once.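 Following 48 hours of exposure in 96-well plates, responses at five concentrations were used to interpolate endpoints linearly. TGI is the concentration that stops growth completely.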

Consider `Cc1ccc(S(=O)(=O)C(C#N)c2nc3ccccc3nc2-n2cccn2)cc1` (stereo not drawn), for which the TGI in the test with LXFL 529 NSCLC, in the test with SNB-78 CNS, in the test with M19-MEL melanoma, in the test on DLD-1 colon and in the test with XF 498 CNS was more than 100 µM each time.

In the case of `O=S1(=O)NNC(=NCc2ccc(F)cc2)c2ccccc21`, the TGI in the test with LXFL 529 NSCLC, in the test with SNB-78 CNS, in the test with M19-MEL melanoma, in the test with DLD-1 colon and in the test on XF 498 CNS was more than 100 µM throughout.

Turning to `CC(C)(CN1CCCCC1)C(=O)CC(SCCS(=O)(=O)O)c1ccc(Br)cc1` (stereo not drawn), the TGI in the test on LXFL 529 NSCLC is 2.7 µM; in the test on SNB-78 CNS, 77.7 µM; in the test on M19-MEL melanoma, 5.05 µM; in the test on DLD-1 colon it was 5.73 µM; in the test on XF 498 CNS, 2.07 µM.

On to `CC(=O)O[C@]12CCCCCCC1C1(O)C(O)CCC[C@H]12` (stereo partly drawn), for which the TGI in the test on LXFL 529 NSCLC, with SNB-78 CNS, in the test on M19-MEL melanoma and in the test on XF 498 CNS was more than 100 µM throughout.

With `Cc1ccc2c(c1)c(=O)c1c(NCCN(C)C)ccc3nnn2c31`, the TGI was determined as 20.1 µM in the test with LXFL 529 NSCLC, 24.2 µM with SNB-78 CNS, 20.8 µM with M19-MEL melanoma and 20 µM in the test on DLD-1 colon.

With `c1ccc(C2=NN3CN(N2)c2ccccc2OCCCOc2ccccc23)cc1`, the TGI with LXFL 529 NSCLC, with SNB-78 CNS, in the test with M19-MEL melanoma and in the test on XF 498 CNS was more than 100 µM each time.

Consider `CCCCN(CCCC)C(=NCc1ccccc1)NC#N`, for which the TGI is 31.2 µM with LXFL 529 NSCLC, 70.2 µM with SNB-78 CNS, 36.1 µM in the test on M19-MEL melanoma and 47 µM in the test on DLD-1 colon.

Take `NC1=NS(=O)(=O)N=C(N)C1=Cc1ccc([N+](=O)[O-])o1`: the TGI with LXFL 529 NSCLC amounted to 30.8 µM; in the test with SNB-78 CNS it was 47.9 µM; in the test on M19-MEL melanoma it was 30 µM; with DLD-1 colon, 33.7 µM; with XF 498 CNS, 32.7 µM.

Regarding `Brc1ccc(N2C[N+](c3ccc(Br)cc3)=NC(c3ccccc3)=N2)cc1`, the TGI in the test with LXFL 529 NSCLC is 23 µM and > 100 µM; in the test on SNB-78 CNS, 70.6 µM and > 100 µM; in the test with M19-MEL melanoma, 29.7 µM and > 100 µM; with DLD-1 colon, 25.2 µM and > 100 µM; in the test on XF 498 CNS, 35.5 µM and > 100 µM.

`O=C1CCC2(CCC(=O)NC2=O)C(=O)N1`: the TGI with LXFL 529 NSCLC, in the test with M19-MEL melanoma and in the test with XF 498 CNS was more than 100 µM throughout.

As to `O=C(c1cccs1)N(C(=S)N1CCN(c2ccccc2)CC1)c1ccccc1`, the TGI with LXFL 529 NSCLC, with SNB-78 CNS, in the test on M19-MEL melanoma and in the test with DLD-1 colon was more than 100 µM throughout.
